Drawing on patent US20210253575A1, “PYRROLIDINE AMINE COMPOUNDS FOR THE TREATMENT OF AUTOIMMUNE DISEASE” (Hoffmann-La Roche Inc., priority 2018, published 2021), this text covers IC50 for eight molecules.

Molecules are shown by their SMILES.

This assay addresses T1, human TLR8 (Homo sapiens, UniProt Q9NR97).
T1 sequence (Q9NR97 27-1041): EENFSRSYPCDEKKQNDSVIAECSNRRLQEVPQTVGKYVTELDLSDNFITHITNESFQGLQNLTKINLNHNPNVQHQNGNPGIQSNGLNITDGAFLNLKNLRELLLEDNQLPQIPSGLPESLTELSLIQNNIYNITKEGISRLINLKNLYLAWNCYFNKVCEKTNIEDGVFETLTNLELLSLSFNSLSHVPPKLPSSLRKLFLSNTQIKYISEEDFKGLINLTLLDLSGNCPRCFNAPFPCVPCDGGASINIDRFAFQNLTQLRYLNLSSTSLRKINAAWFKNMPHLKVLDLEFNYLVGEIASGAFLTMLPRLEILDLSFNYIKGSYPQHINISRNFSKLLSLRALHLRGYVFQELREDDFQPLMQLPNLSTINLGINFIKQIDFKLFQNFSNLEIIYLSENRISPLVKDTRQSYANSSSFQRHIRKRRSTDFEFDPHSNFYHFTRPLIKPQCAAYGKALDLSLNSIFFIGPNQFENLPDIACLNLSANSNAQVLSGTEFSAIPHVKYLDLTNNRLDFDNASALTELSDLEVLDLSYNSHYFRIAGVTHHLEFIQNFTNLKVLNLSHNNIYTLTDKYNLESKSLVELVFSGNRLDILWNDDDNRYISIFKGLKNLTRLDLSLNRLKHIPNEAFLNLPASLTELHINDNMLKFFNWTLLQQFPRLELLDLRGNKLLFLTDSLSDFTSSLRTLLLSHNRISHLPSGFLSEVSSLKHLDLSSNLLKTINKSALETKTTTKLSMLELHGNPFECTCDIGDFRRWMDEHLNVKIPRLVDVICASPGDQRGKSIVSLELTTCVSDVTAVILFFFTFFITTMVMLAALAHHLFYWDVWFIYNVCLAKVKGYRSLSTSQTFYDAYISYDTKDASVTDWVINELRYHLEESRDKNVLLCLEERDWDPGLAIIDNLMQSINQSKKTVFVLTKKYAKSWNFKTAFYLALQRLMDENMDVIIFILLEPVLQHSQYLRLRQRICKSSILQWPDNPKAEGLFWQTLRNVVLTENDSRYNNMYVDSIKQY
Briefly: HEK293-Blue-hTLR-8 cells assay (SEAP reporter, R848 stimulation). Type of assay: cell-based. To be noted: HEK293-Blue-hTLR8 cells, R848 ligand, 20 hrs incubation. Put shortly: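 Antagonism was measured in HEK293-Blue-hTLR8 cells with an NF-κB/AP-1-driven SEAP reporter. Cells were stimulated with R848 (10 μL of 60 uM stock) alongside compound (1% DMSO) for 20 hrs at 37° C. Supernatant SEAP was read with QUANTI-Blue after 2 hrs, absorbance at 620-655 nm.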
`CC1(CN)CCCN(C[C@H]2CN(c3ccc(C#N)c4nccnc34)C[C@@H]2C(F)(F)F)C1` (stereo partly drawn) [Example 75, 8-[(3S,4R)-3-[[3-(aminomethyl)-3-methyl-1-piperidyl]methyl]-4-(trifluoromethyl)pyrrolidin-1-yl]quinoxaline-5-carbonitrile] showed a 50% inhibitory concentration (IC50) of 31 nM.
In the case of `N#Cc1ccc(N2C[C@H](CN3CC4CNCC4C3)[C@@H](C(F)(F)F)C2)c2nccnc12` (stereo partly drawn) [Example 76, 8-[(3S,4R)-3-(2,3,3a,4,6,6a-hexahydro-1H-pyrrolo[3,4-c]pyrrol-5-ylmethyl)-4-(trifluoromethyl)pyrrolidin-1-yl]quinoxaline-5-carbonitrile], the IC50 came out at 41 nM.
The value for `N#Cc1ccc(N2C[C@H](CN3CC4CCC3CN4)[C@@H](C(F)(F)F)C2)c2nccnc12` (stereo partly drawn) [Example 77, 8-[(3S,4R)-3-(2,5-diazabicyclo[2.2.2]octan-2-ylmethyl)-4-(trifluoromethyl)pyrrolidin-1-yl]quinoxaline-5-carbonitrile] was 26 nM; that for `N#Cc1ccc(N2C[C@H](CN3CCCC(F)(CN)C3)[C@@H](C(F)(F)F)C2)c2nccnc12` (stereo partly drawn) [Example 78, 8-[(3S,4R)-3-[[3-(aminomethyl)-3-fluoro-1-piperidyl]methyl]-4-(trifluoromethyl)pyrrolidin-1-yl]quinoxaline-5-carbonitrile] was 30 nM.
For `N#Cc1ccc(N2C[C@H](CN3CCC(CCN)CC3)[C@@H](C(F)(F)F)C2)c2nccnc12` [Example 79, 8-[(3S,4R)-3-[[4-(2-aminoethyl)-1-piperidyl]methyl]-4-(trifluoromethyl)pyrrolidin-1-yl]quinoxaline-5-carbonitrile], the IC50 was 102 nM.
The value for `CN(C)C1CCN(C[C@H]2CN(c3ccc(C#N)c4nccnc34)C[C@@H]2C(F)(F)F)CC1` [Example 80, 8-[(3S,4R)-3-[[4-(dimethylamino)-1-piperidyl]methyl]-4-(trifluoromethyl)pyrrolidin-1-yl]quinoxaline-5-carbonitrile] was 32 nM; that for `CNCC1CCN(C[C@H]2CN(c3ccc(C#N)c4nccnc34)C[C@@H]2C(F)(F)F)CC1` [Example 81, 8-[(3S,4R)-3-[[4-(methylaminomethyl)-1-piperidyl]methyl]-4-(trifluoromethyl)pyrrolidin-1-yl]quinoxaline-5-carbonitrile] was 25 nM; that for `CN(C)C[C@@H]1CCN(C[C@H]2CN(c3ccc(C#N)c4nccnc34)C[C@@H]2C(F)(F)F)C1` [Example 82, 8-[(3S,4R)-3-[[(3S)-3-[(dimethylamino)methyl]pyrrolidin-1-yl]methyl]-4-(trifluoromethyl)pyrrolidin-1-yl]quinoxaline-5-carbonitrile] was 108 nM.
